According to patent publication US10308881B2, “Process to produce oil with low polyaromatic hydrocarbon content” (PT PERTAMINA (PERSERO), priority 2010, dated 2019):

Tested on: Salmonella typhimurium TA 1535
Experiment: Mutagenicity test (AMES Test, OECD Guidelines for Testing of Chemicals No. 471)
Format: cell-based
Settings: without dilution
Text: One of the important consideration published in the European Commission 2005/69/EC (European legislation) confirmed the restriction that the level of 8 Grimmers PAHs especially Benzo(a)pyrene (BaP) with amount exceeding the allowed limit will be considered as carcinogenic, mutagenic and toxic, and thereby will be prohibited to produce and distribute within the European legislation area. The presence of PAHs can be detected qualitatively and quantitatively using Benzo(a)Pyrene (BaP) as marker. Commonly known method to measure carcinogenic and mutagenic compound is ASTM E 1687-98 method (Ames test method for determining carcinogenic potential of Virgin Base Oils in Metalworking Fluids) and also Ames test based on OECD Guidelines for Testing of Chemicals No 471(1997). In the present invention method of AMES test using Salmonella typhimurium TA 1535 as microbes that is very sensitive to mutagenic compounds.
The mutagenity test was conducted using AMES Test based on OECD Guidelines for Testing of Chemicals No. 471 (1997). In this test Salmonella typhimurium TA 1535 was used as microbe material which was very sensitive to mutagenic compound. The number of colony which grew was an indicator of mutagenic activity of the PAH compound in the DAE Feed, TDAE-1 and TDAE-2, respectively. […]

In the case of C[S+](C)[O-] [DMSO, dimethylsulfoxide], the “Average Number of Colony Koloni” value (With S-9 Mix) is reported as 377 and the “Average Number of Colony Koloni” value (Without S-9 Mix) is reported as 314.
